The record followed here is patent publication US9827229B2, “Small molecule securinine and norsecurinine analogs and their use in cancers, inflammatory diseases and infections” (INVENIO THERAPEUTICS INC., priority 2013, dated 2017).

The experiment deals with HL60 cells. As to the kind of experiment: Growth of HL60 cells (IC50). The class given is cell-based, human. The protocol:
The analogs were then tested and evaluated on the ability to affect differentiation and growth of HL60 cells.

[1] abbreviates: Homo sapiens, HL-60, read-out: HL-60, IC50, HL-60 cells, growth.
[2] abbreviates: Homo sapiens, HL-60, read-out: HL-60, IC50, HL-60 cells, growth, no unit in head or cell (other cells of the column print uM).
[3] abbreviates: Homo sapiens, HL-60, HL-60 cells, growth, no unit in head or cell (other cells of the column print uM), read-out: HL-60, IC50.

Where two headings read alike, the source gives them in different places.

By IC50 is commonly meant the midpoint of a concentration-inhibition curve. On to `COC(OC)[C@H]1CC[C@H]2N1[C@@H]1C=CC3=CC(=O)O[C@@]32C1` [INVS-MG-99-IVD], for which the IC50 under setting [1] is under 5 µM. Consider `COC(OC)[C@H]1CC[C@H]2N1[C@@H]1C=C(I)C3=CC(=O)O[C@@]32C1` [INVS-MG-99B = 52B], for which the 50% inhibitory concentration (IC50) under setting [2] is 0.156 to 0.31 µM. `COC(OC)[C@H]1CC[C@H]2N1[C@@H]1C=CC3=CC(=O)O[C@@]32C1` [INVS-MG-99D = 52D]: under setting [2], the IC50 was 0.31 to 0.625 µM.

In the case of `O=C1C=C2C(C#CCc3ccccc3)=C[C@@H]3C[C@@]2(O1)[C@H]1CCCCN31` [INVS-MG-108-IIB], the IC50 under setting [3] is 0.31 to 0.625 µM. Consider `CCCCCCCCC#CC1=C[C@@H]2C[C@@]3(OC(=O)C=C13)[C@H]1CCCCN21` [INVS-MG-118-IIB], for which, under setting [3], the IC50 lay in the range of 2.5 to 5 µM. On to `O=C1C=C2C(C#CCCCCl)=C[C@@H]3C[C@@]2(O1)[C@H]1CCCCN31` [INVS-MG-119A], for which, under setting [3], the half-maximal inhibitory concentration (IC50) is 0.625 to 1.25 µM. On the same count and under the same terms, with `O=C1C=C2C(/C=C(\C#CCCCCl)CCCCl)=C[C@@H]3C[C@@]2(O1)[C@H]1CCCCN31` [INVS-MG-119B] the figure was 1.25 to 2.5 µM; with `O=C1C=C2C(C#Cc3cccnc3)=C[C@@H]3C[C@@]2(O1)[C@H]1CCCCN31` [INVS-MG-144B], 0.31 to 0.625 µM.

On to `CCN(CC)CC#CC1=C[C@@H]2C[C@@]3(OC(=O)C=C13)[C@H]1CCCCN21` [INVS-MG-145-V], for which the IC50 under setting [2] fell in the range of 0.07 to 0.156 µM. Take `CN(C)c1ccc(C#CC2=C[C@@H]3C[C@@]4(OC(=O)C=C24)[C@H]2CCCCN32)cc1` [INVS-MG-146-IV]: under setting [2], the IC50 fell in the range of 0.07 to 0.156 µM.

Regarding `O=C1C=C2C(C#CCSc3ccccc3)=C[C@@H]3C[C@@]2(O1)[C@H]1CCCCN31` [INVS-MG-147B], the half-maximal inhibitory concentration (IC50) under setting [3] is 0.625 to 1.25 µM. As for `O=C1C=C2C(/C=C(\C#Cc3cc(C(F)(F)F)cc(C(F)(F)F)c3)c3cc(C(F)(F)F)cc(C(F)(F)F)c3)=C[C@@H]3C[C@@]2(O1)[C@H]1CCCCN31` [INVS-MG-149B], under setting [3], the half-inhibitory concentration (IC50) is 1.25 to 2.5 µM.

Turning to `O=C1C=C2C(C#Cc3cc(C(F)(F)F)cc(C(F)(F)F)c3)=C[C@@H]3C[C@@]2(O1)[C@H]1CCCCN31` [INVS-MG-149B′], under setting [3], the IC50 lay within 1.25 to 2.5 µM.

As for `CCCN(CC#CC1=C[C@@H]2C[C@@]3(OC(=O)C=C13)[C@H]1CCCCN21)CCC` [INVS-MG-152-III], where the note is “HL-60 cells, growth, no unit in head or cell (other cells of the column print uM), read-out: HL-60, IC50”, the concentration for half-maximal inhibition (IC50) is under 0.03 µM. For `COc1ccc2cc(C#CC3=C[C@@H]4C[C@@]5(OC(=O)C=C35)[C@H]3CCCCN43)ccc2c1` [INVS-MG-157-III], under setting [3], the 50% inhibitory concentration (IC50) was 0.07 to 0.156 µM. In the case of `O=C1C=C2C(C#Cc3cc4ccccc4c4ccccc34)=C[C@@H]3C[C@@]2(O1)[C@H]1CCCCN31` [INVS-MG-158-VI], under setting [2], the IC50 lay within 0.156 to 0.31 µM. In the case of `O=C1C=C2C(C#Cc3cc4ccccc4c4ccccc34)=C[C@@H]3C[C@@]2(O1)[C@H]1CCCCN31` [INVS-MG-158-V], the IC50 (read-out: HL-60, IC50, HL-60 cells, growth, no unit in head or cell (other cells of the column print uM)) is under 5 µM. Consider `CCCCC1C(/C=C/c2ccc(OC)cc2)C2=CC(=O)O[C@@]23C[C@@H]1N1CCCC[C@@H]13` (stereo partly shown) [INVS-MG-163-IIB], for which the IC50 under setting [3] was under 10 µM. `O=C1C=C2C(C#Cc3ccc(-c4ccccc4)cc3)=C[C@@H]3C[C@@]2(O1)[C@H]1CCCCN31` [INVS-MG-169-III]: the IC50 under setting [3] was 0.07 to 0.156 µM. Regarding `O=C1C=C2C(C#Cc3ccc([N+](=O)[O-])cc3)=C[C@@H]3C[C@@]2(O1)[C@H]1CCCCN31` [INVS-MG-176B], the IC50 under setting [3] was 0.31 to 0.625 µM. The same measure, in the same setting: to `CCCCN(CC#CC1=C[C@@H]2C[C@@]3(OC(=O)C=C13)[C@H]1CCCCN21)CCCC` [INVS-MG-179B] belongs 0.156 to 0.31 µM. On to `[N-]=[N+]=Nc1ccc(C#CC2=C[C@@H]3C[C@@]4(OC(=O)C=C24)[C@H]2CCCCN32)cc1` [INVS-MG-193-III], for which the IC50 under setting [3] fell in the range of 0.156 to 0.31 µM. Turning to `C[Si](C)(C)C#CC1=C[C@@H]2C[C@@]3(OC(=O)C=C13)[C@H]1CCCCN21` [INVS-MG-207-IIIA], the IC50 under setting [2] was in the range of 1.25 to 2.5 µM. Turning to `C#CC1=C[C@@H]2C[C@@]3(OC(=O)C=C13)[C@H]1CCCCN21` [INVS-MG-207A], the IC50 under setting [3] lay in the range of 0.07 to 0.156 µM. Regarding `COC(OC)[C@H]1CC[C@H]2N1[C@@H]1C=C(C#Cc3ccc(N)cc3)C3=CC(=O)O[C@@]32C1` [INVS-MG-219A], under setting [3], the IC50 was in the range of 0.625 to 1.25 µM.

In the case of `COC(OC)[C@H]1CC[C@H]2N1[C@@H]1C=C(C#Cc3cc4ccccc4c4ccccc34)C3=CC(=O)O[C@@]32C1` [INVS-MG-220B], the half-inhibitory concentration (IC50) under setting [2] is 0.156 µM. As to `COC(OC)[C@@H]1CC[C@H]2N1[C@@H]1C=C(C#Cc3cc4ccccc4c4ccccc34)C3=CC(=O)O[C@@]32C1` [INVS-MG-220C], under setting [1], the half-inhibitory concentration (IC50) was over 5 µM. On to `COc1cccc(C#CC2=C[C@@H]3C[C@@]4(OC(=O)C=C24)[C@H]2CC[C@H](C(OC)OC)N32)c1` [INVS-MG-221B], for which the IC50 under setting [3] was in the range of 0.625 to 1.25 µM. Turning to `COc1cc(C#CC2=C[C@@H]3C[C@@]4(OC(=O)C=C24)[C@H]2CC[C@H](C(OC)OC)N32)cc(OC)c1` [INVS-MG-222B], under setting [3], the IC50 was under 0.03 µM. Same read-out and setting: to `COc1ccc(C#CC2=C[C@@H]3C[C@@]4(OC(=O)C=C24)[C@H]2CC[C@H](C(OC)OC)N32)cc1OC` [INVS-MG-223B] belongs 0.156 to 0.31 µM; to `COC(OC)[C@H]1CC[C@H]2N1[C@@H]1C=C(C#Cc3ccc(CO)cc3)C3=CC(=O)O[C@@]32C1` [INVS-MG-224A], 0.156 to 0.31 µM.
